First: O=C(Cc1c(F)c(F)c(F)c(F)c1F)N1CCC(NCC(O)COc2cccc3[nH]c4ccccc4c23)CC1 (stereo not shown) [Example 69, 1-(9H-carbazol-4-yloxy)-3-{[1-(pentafluorophenyl)acetylpiperidin-4-yl]amino}propan-2-ol]
Second: O=C(Cc1c(F)c(F)c(F)c(F)c1F)N1CCN(CC(O)COc2cccc3[nH]c4ccccc4c23)CC1 (stereo not shown)
The melting point of the first is lower: 80 to 83 °C for the first, 93 to 96 °C for the second.

First: O=C(c1ccc(-c2ccc([N+](=O)[O-])cc2)o1)N1CCN(CC(O)COc2cccc3[nH]c4ccccc4c23)CC1 (stereo not shown) [Example 40, 1-(9H-carbazol-4-yloxy)-3-{4-[5-(4-nitrophenyl)-2-furoyl]piperazin-1 yl}propan-2-ol]
Second: O=C(c1cc2ccccc2o1)N1CCN(CC(O)COc2cccc3[nH]c4ccccc4c23)CC1 (stereo not shown) [Example 54, 3-[4-(1-Benzofuran-2-ylcarbonyl)piperazin-1-yl]-1-(9H-carbazol-4-yloxy)propan-2-ol]
The melting point of the first is higher: 101 to 104 °C for the first, 93 to 96 °C for the second.

Compared with `O=C(c1ccc2c(c1)OCO2)N1CCN(CC(O)COc2cccc3[nH]c4ccccc4c23)CC1` (stereo not shown) [Example 50, 1-(9H-carbazol-4-yloxy)-3-[4-(1,3-benzodioxol-5-ylcarbonyl)piperazin-1-yl]propan-2-ol], `O=C(/C=C/c1ccc2c(c1)OCO2)N1CCN(CC(O)COc2cccc3[nH]c4ccccc4c23)CC1` (stereo not shown) [Example 45, 1-(9H-carbazol-4-yloxy)-3-{4-[(2E)-3-(1,3-benzodioxol-5-yl)acryloyl]piperazin-1-yl}propan-2-ol] is higher in melting point: 70 to 73 °C for the first, 90 to 93 °C for the second.

First: COc1cccc2sc(NC(=O)CN3CCN(CC(O)COc4cccc5[nH]c6ccccc6c45)CC3)nc12 (stereo not shown) [Example 61, 2-{4-[3-(9H-carbazol-4-yloxy)-2-hydroxypropyl]-piperazin-1-yl}-N-(4-methoxy-1,3-benzothiazol-2-yl)acetamide]
Second: O=C(CN1CCN(CC(O)COc2cccc3[nH]c4ccccc4c23)CC1)Nc1ccccc1 (stereo not shown) [Example 62, 2-{4-[3-(9H-carbazol-4-yloxy)-2-hydroxypropyl]-piperazin-1-yl}-N-phenyl acetamide]
The melting point of the first is higher: 289 to 292 °C for the first, 69 to 71 °C for the second.

First: O=C(CCc1cc2ccccc2[nH]1)N1CCN(CC(O)COc2cccc3[nH]c4ccccc4c23)CC1 (stereo not shown) [Example 51]
Second: O=C(c1cc2ccccc2[nH]1)N1CCN(CC(O)COc2cccc3[nH]c4ccccc4c23)CC1 (stereo not shown) [Example 38, 1-(9H-carbazol-4-yloxy)-3-[4-(1H-indole-2-carbonyl)piperazin-1-yl]propan-2-ol]
The melting point of the first is lower: 112 to 114 °C for the first, 215 to 218 °C for the second.

First: COc1cc(OC)c(CN2CCN(CC(O)COc3cccc4[nH]c5ccccc5c34)CC2)c(OC)c1 (stereo not shown) [Example 34, 1-(9H-carbazol-4-yloxy)-3-[4-(2,4,6-trimethoxybenzyl)piperazin-1-yl]propan-2-ol]
Second: COc1ccc(C(=O)N2CCN(CC(O)COc3cccc4[nH]c5ccccc5c34)CC2)cc1OC (stereo not shown) [Example 42, 1-(9H-carbazol-4-yloxy)-3-[4-(3,4-dimethoxybenzoyl)piperazin-1-yl]propan-2-ol]
The melting point of the first is higher: 119 to 122 °C for the first, 98 to 101 °C for the second.

First: O=C(c1ccc(Br)s1)N1CCN(CC(O)COc2cccc3[nH]c4ccccc4c23)CC1 (stereo not shown) [Example 56, 3-[4-(5-Bromothiophene-2-carbonyl)piperazin-1-yl]-1-(9H-carbazol-4-yloxy) propan-2-ol]
Second: O=C(c1cccs1)N1CCN(CC(O)COc2cccc3[nH]c4ccccc4c23)CC1 (stereo not shown) [Example 39, 1-(9H-carbazol-4-yloxy)-3-[4-(thiophene-2-carbonyl)piperazin-1-yl]propan-2-ol]
The melting point of the first is lower: 78 to 80 °C for the first, 80 to 83 °C for the second.

Compared with `COc1ccc(CC(=O)N2CCN(CC(O)COc3cccc4[nH]c5ccccc5c34)CC2)cc1` (stereo not shown), `O=C(Cc1ccc(F)cc1)N1CCN(CC(O)COc2cccc3[nH]c4ccccc4c23)CC1` (stereo not shown) is lower in melting point: 166 to 169 °C for the first, 79 to 81 °C for the second.

Compared with `O=C(c1cnc2ccccc2n1)N1CCN(CC(O)COc2cccc3[nH]c4ccccc4c23)CC1` (stereo not shown) [Example 46, 1-(9H-carbazol-4-yloxy)-3-[4-(quinoxaline-2-carbonyl)piperazin-1-yl]propan-2-ol], `N#Cc1ccc(C(=O)N2CCN(CC(O)COc3cccc4[nH]c5ccccc5c34)CC2)cn1` (stereo not shown) [Example 47, 1-(9H-carbazol-4-yloxy)-3-[4-(6-cyanonicotine-3-carbonyl)piperazin-1-yl]propan-2-ol] is higher in melting point: 89 to 92 °C for the first, 92 to 95 °C for the second.

First: O=C(c1ccc2c(c1)OCO2)N1CCC(NCC(O)COc2cccc3[nH]c4ccccc4c23)CC1 (stereo not shown) [Example 68, 3-{[1-(1,3-Benzodioxol-5-ylcarbonyl)piperidin-4-yl]amino}-1-(9H-carbazol-4-yloxy)propan-2-ol]
Second: COc1ccc(CC(=O)N2CCC(NCC(O)COc3cccc4[nH]c5ccccc5c34)CC2)cc1 (stereo not shown) [Example 71, 1-(9H-carbazol-4-yloxy)-3-{[1-(4-methoxyphenylacetyl)piperidin-4-yl]amino}propan-2-ol]
The melting point of the first is higher: 88 to 90 °C for the first, 54 to 57 °C for the second.

`CSc1ccc(CN2CCN(CC(O)COc3cccc4[nH]c5ccccc5c34)CC2)cc1` (stereo not shown) [Example 33, 1-(9H-carbazol-4-yloxy)-3-[4-(4-methylthiobenzyl)piperazin-1-yl]propan-2-ol] and `OC(COc1cccc2[nH]c3ccccc3c12)CN1CCN(Cc2ccc(Br)cc2F)CC1` (stereo not shown) [Example 32, 1-(9H-carbazol-4-yloxy)-3-[4-(4-bromo-2-fluorobenzyl)piperazin-1-yl]propan-2-ol] cannot be ordered by melting point: 69 to 71 °C for the first, 68 to 70 °C for the second.

First: O=C(c1cc([N+](=O)[O-])[nH]n1)N1CCN(CC(O)COc2cccc3[nH]c4ccccc4c23)CC1 (stereo not shown) [Example 36, 1-(9H-carbazol-4-yloxy)-3-[4-(5-nitro-1H-pyrazole-3-carbonyl)piperazin-1-yl]propan-2-ol]
Second: O=C(c1ccco1)N1CCN(CC(O)COc2cccc3[nH]c4ccccc4c23)CC1 (stereo not shown) [Example 37, 1-(9H-carbazol-4-yloxy)-3-[4-(2-furoyl)piperazin-1-yl]propan-2-ol]
The melting point of the first is higher: 140 to 144 °C for the first, 85.1 to 89.1 °C for the second.

First: CC(=O)c1ccc(S(=O)(=O)N2CCN(CC(O)COc3cccc4[nH]c5ccccc5c34)CC2)cc1 (stereo not shown) [Example 75, 3-[4-(4-Acetylphenylsulfonyl)piperazin-1-yl]-1-(9H-carbazol-4-yloxy)propan-2-ol]
Second: O=C(Cc1ccc(O)c(F)c1)N1CCN(CC(O)COc2cccc3[nH]c4ccccc4c23)CC1 (stereo not shown)
The melting point of the first is higher: 183 to 185 °C for the first, 111 to 113 °C for the second.

Compared with `OC(COc1cccc2[nH]c3ccccc3c12)CN1CCN(Cc2nccs2)CC1` (stereo not shown) [Example 28, 1-(9H-carbazol-4-yloxy)-3-{4-[(thiazol-2-yl)methyl]piperazin-1-yl}propan-2-ol], `OC(COc1cccc2[nH]c3ccccc3c12)CN1CCN(CC2CC2)CC1` (stereo not shown) [Example 29, 1-(9H-carbazol-4-yloxy)-3-[4-(cyclopropylmethyl)piperazin-1-yl]propan-2-ol] is lower in melting point: 57 to 62 °C for the first, 51 to 56 °C for the second.

— US7786142B2, “Heterocyclic compounds as pSTAT3/IL-6 inhibitors” (Orchid Research Laboratories, Ltd., priority 2005, dated 2010)
